US20260306640A1, “TECHNOLOGIES TARGETING CELL STATES” (Auron Therapeutics, Inc., priority 2023, published 2026)
Like-named read-outs stand apart in the source and are kept apart here.

Legend:
[1] = system: LASCPC-01 cells; assay: Cell growth inhibition, neuroendocrine prostate cancer line LASCPC-01 (Cell Titer Glo, day 7); type: cell-based
Source text: (§1) Among other things, provided technologies are useful for treating various diseases, disorders, or conditions. For example, in some embodiments, provided technologies are useful for treating cancer as confirmed in the present Example. […] In some embodiments, provided technologies can inhibit cell proliferation. In some embodiments, the present disclosure provides technologies for assessing various technologies, e.g., compounds, compositions, or methods. Among other things, the present Example provides technologies, e.g., cell growth inhibition assay, for assessing various technologies. […] In some embodiments, the following cell growth inhibition methods are utilized to assess provided technologies.
Neuroendocrine prostate cancer: Neuroendocrine prostate cancer line LASCPC-01 cells were cultured in DMEM F12 media with 5% FBS, 1% Penicillin/Streptomycin and HITES supplement (Hydrocortisone, Insulin, Transferrin, Estradiol and Sodium Selenite). Cells were plated at 1,425 cells/well of a 96 well plate. Compound and media were replenished every two days and at day 7 cell viability was assayed using Cell Titer Glo following manufacturer's instructions.
(§2) In some assessments, for cell growth inhibition, cells, e.g., MOLM13, NCI-H1048, and LASCPC-01 cells, were counted using a hemocytometer or automated cell counting in triplicates. In some assessments, proliferation in NEPC organoids as measured with Cell Titer Glo reagent (Promega). Growth inhibition was determined relative to vehicle control.

[2] = target: T1, KAT2A (Homo sapiens, UniProt Q92830); assay: KAT2A degradation, Western Blot (Jess), MOLM-13 cells; type: cell-based; set-up: degrader, Western blot
T1 sequence (Q92830 whole entry): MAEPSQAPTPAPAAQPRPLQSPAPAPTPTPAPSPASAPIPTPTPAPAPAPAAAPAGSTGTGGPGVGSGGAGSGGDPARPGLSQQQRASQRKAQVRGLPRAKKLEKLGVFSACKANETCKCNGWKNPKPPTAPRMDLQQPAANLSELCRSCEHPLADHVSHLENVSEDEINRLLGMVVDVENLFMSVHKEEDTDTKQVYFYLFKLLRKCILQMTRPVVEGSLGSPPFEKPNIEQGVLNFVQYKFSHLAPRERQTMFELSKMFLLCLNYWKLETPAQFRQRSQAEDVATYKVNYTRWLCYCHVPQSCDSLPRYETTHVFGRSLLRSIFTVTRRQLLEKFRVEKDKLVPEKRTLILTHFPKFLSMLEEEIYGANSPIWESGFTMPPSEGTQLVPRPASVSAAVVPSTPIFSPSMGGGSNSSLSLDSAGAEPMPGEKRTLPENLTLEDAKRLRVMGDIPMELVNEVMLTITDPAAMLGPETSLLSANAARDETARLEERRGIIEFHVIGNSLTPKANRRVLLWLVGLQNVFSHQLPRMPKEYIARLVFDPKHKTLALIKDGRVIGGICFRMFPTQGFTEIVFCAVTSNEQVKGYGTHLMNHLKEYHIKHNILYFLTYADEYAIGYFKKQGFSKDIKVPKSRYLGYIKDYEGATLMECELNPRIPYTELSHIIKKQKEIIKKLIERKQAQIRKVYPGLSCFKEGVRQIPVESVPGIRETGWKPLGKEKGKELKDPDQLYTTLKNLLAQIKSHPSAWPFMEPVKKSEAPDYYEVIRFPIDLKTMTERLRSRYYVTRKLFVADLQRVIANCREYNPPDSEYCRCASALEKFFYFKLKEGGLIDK
How it was run: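 MOLM-13 cells in RPMI 1640/20% FBS were treated with compound for 24 h at 37 °C. RIPA lysates (4 μg) were run on a capillary Western (Jess) with anti-KAT2A antibody and chemiluminescent detection. DC50 comes from percent protein reduction versus DMSO control.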

[3] = system: MOLM-13 cells; assay: Cell growth inhibition, AML cell line MOLM-13 (CyQuant, day 7); type: cell-based; conditions: for GI50: Homo sapiens
Source text: as §1
AML: AML cell line MOLM-13 cells were cultured in RPMI+15% FBS and were plated at 500 cells/well in 100 uL media in a U-bottom 96-well plate. Compounds were dilute to 3×final in full media and 50 uL were added to corresponding wells. Compound and media were replenished on days 2 and 5. On day 7, cells were transferred to a 96-well black bottom plate and CyQuant was performed per manufacturer's instructions.
as §2

[4] = system: neuroendocrine prostate cancer cells, e.g., LASCPC-01 cells; assay: Differentiation GSEA signatures from RNA-Seq, LASCPC-01; type: cell-based; conditions: FIG. 3
Method: (§3) In some embodiments, GSEA signatures are utilized for assessing cell states, differentiation, etc. In some assessments, differentiation GSEA signatures, e.g., from RNA-Seq was performed. A useful protocol is described herein as an example. In some assessments, LASCPC-01 cells, NEPC organoid cell pellets, or NCI-H1048 tumor pieces were flash frozen upon harvest and stored at −80° C. RNA was isolated, mRNA library was prepared (poly A enrichment) and sequencing was run. Reads were aligned to reference v38 using Kallis to generate gene count matrices for each sample. The gene count matrix was the input to the ML pipelines that generate normal atlas scores and cell state classification. It was also input to differential expression analysis using Edger in R. The output of differential expression was input to gene set enrichment analysis (GSEA) to define gene sets that were most shifted by treatment. For defining specific epithelial differentiation endpoints to generate the solid tumor differentiation box plots, cell state gene sets resulting from GSEA are consolidated by cell state to define a consensus set of genes that define epithelial differentiation. Other suitable technologies may also utilized in accordance with the present disclosure.

[5] = system: small cell lung cancer cells, e.g., NCI-H1048 cells; assay: Differentiation GSEA signatures from RNA-Seq, NCI-H1048; type: cell-based, human; conditions: NCI-H1048, FIG. 1
Method: as §3

[6] = target: T1, KAT2A; assay: KAT2A reduction in LASCPC-01 cells; type: cell-based; set-up: degrader, Western blot
Method: MOLM-13 cells or NCI-H1048 cells were washed with PBS, then lysed with RIPA buffer containing 1×protease and phosphatase inhibitors (SantaCruz Biotechnologies Cat #sc-24948A). Protein was isolated by centrifugation at 12,000×g for 10 minutes at 4° C. and supernatant was collected. Protein was quantified via Bradford assay. Samples were diluted to 4 μg lysate in 16 μL RIPA buffer and then 4 μL of Jess Sample Buffer. Samples were heated at 95° C. for 5 minutes. Samples were loaded onto 12-230 kDa Jess™ Separation Module, 8×25 capillary cartridges (SM-W004, Biotechne). Antibodies loaded were: Primary antibody for KAT2A (GCN5L2 (C26A10) Rabbit mAb (3305, CST)) and for KAT2B (PCAF (C14G9)) Rabbit mAb (3378, CST) at 1:1000 and Anti-Rabbit Detection Module for Jess™ (Cat No #DM-001, Biotechne). Signal was detected by chemiluminescence.
In some embodiments, assessment was performed in LASCPC-01 cells, and reduction of KAT2A and KAT2B levels, including in some cases selectivity for one over the other, was confirmed. In some embodiments, DC50 and/or DC90 were assessed. In some embodiments, DC50 for various compounds was about or no more than about 1 nM. In some embodiments, DC90 for various compounds was about or no more than about 1 nM. In some embodiments, selectivity for the same polypeptide by a compound was observed across multiple types of cells (e.g., when assessed using DC50 and/or DC90). In some embodiments, certain compounds can provide improved properties and/or activities (e.g., potency). Data from certain assessments for certain compounds are presented below as examples (NT: not tested). It has been confirmed that various compounds described herein, including multiple compounds in Table 1, can be deemed to provide further improved properties and/or activities compared to the compound(s) in the table below for certain contexts, aspects, and/or uses.

- GI50 ([1]; 168 h, LASCPC-01, day 7, Cell Titer Glo, read-out: LASCPC GI50): 5.3 nM
- GI50 ([1]; LASCPC-01, comparison table with Ref-1, read-out: Growth GI50): 5 nM
- EC90 ([2]; 24 h, MOLM-13, KAT2A, read-out: DC90 (the source's name)): 0.6 nM
- DC50 ([2]; MOLM-13, KAT2A, read-out: DC50): 0.11 nM
- KAT2A levels ([2]; MOLM-13 cells, FIG. 2): potently reduce KAT2A and KAT2B levels
- DC50 ([2]; MOLM-13 cells, KAT2A, 24 h, Western Blot, vs DMSO, read-out: KAT2A MOLM-13 DC50): < 1 nM
- GI50 ([3]; 168 h, MOLM-13, day 7, CyQuant, read-out: MOLM13 GI50): 2.9 nM
- GI50 ([3]; MOLM-13, comparison table with Ref-1, read-out: Growth GI50): 1.2 nM
- DC50 ([6]; LASCPC-01, KAT2A): 0.06 nM
- EC90 ([6]; LASCPC-01, KAT2A, read-out: DC90 (the source's name)): 0.67 nM
- KAT2A levels ([6]; LASCPC-01 cells, FIG. 3): potently reduce KAT2A and KAT2B levels
Compound: CN1C[C@H](Nc2cnn(C)c(=O)c2Br)C[C@H](c2ccc(C(=O)N3CCC(CN4CCN(c5ccc6c(c5)CN(C5CCC(=O)NC5=O)C6=O)CC4)CC3)cc2)C1 (stereo partly drawn) [Compound 22, 3-(5-(4-((1-(4-((3R,5R)-5-((5-bromo-1-methyl-6-oxo-1,6-dihydropyridazin-4-yl)amino)-1-methylpiperidin-3-yl)benzoyl)piperidin-4-yl)methyl)piperazin-1-yl)-1-oxoisoindolin-2-yl)piperidine-2,6-dione]
- cell growth in vitro ([1]; LASCPC-01 cells, FIG. 3): inhibit cell growth in vitro and in vivo
- cell growth ([3]; MOLM-13 cells, FIG. 2): inhibit cell growth
- induction of differentiation [4]: induce differentiation (e.g., epithelial, neural, and/or microglial)
- induction of differentiation [5]: induce differentiation (e.g., epithelial, neural, and/or microglial)
